Patent US20030144271A1, “Methods for the treatment of substance abuse” (priority 2000, published 2003)
Where “and” joins values, the source holds several entries; their conditions need not be identical. Identical values can stand only once. Entries after “also recorded” stand apart in the source; their conditions may differ.

Experiments:
[1] = tested on: detoxified opiate subjects; assay: Double-blind placebo-controlled cross-over trial in detoxified opiate subjects (Table 1A, comparative); assay type: in vivo, human; conditions: weekly; for Abstinence: scale 0-10, 10 = total abstinence
Excerpt: (ii) To permit their optimal comparison by the same test subject, treatments A & C were both given for the same and longest length of time available before the trial was terminated. […] The actual drug components of treatments A, B and C for each trial subject, and the duration of each treatment are also shown in Table 1 in each case.
(v) Scoring of key parameters was based on questionaries completed by the subject. […] The subject's answers were assigned a value and the score for all 10 questions totalled (out of 40). A total of 13+ is indicated as alcohol dependent, 8+ as a hazardous drinker and less than 8 a safe drinker, with 0 indicating abstinence. Levels of Craving, tendency to Relapse and degree of Abstinence were rated by the subject on a scale of 0-10, with 0,0 indicating absence of craving and relapse respectively, and 10 indicating total abstinence from alcohol and volatile inhalant.
[…] […] However, many opiate (or other substance) addicts also have a secondary addiction to alcohol or use alcohol excessively when they are unable to obtain the opiate of addiction. The present invention can also be used to treat such multi-substance addicted subjects.

[2] = tested on: alcohol / volatile inhalant dependent patients; assay: Open Alc/Inhalant therapeutic (N + A + CCB) drug dependence trial (Example 7, Table 2); assay type: in vivo, human; conditions: A666 × 3 mg/d; for Key Parameters: Audit Score: score out of 40; for Key Parameters: Abstinence / Key Parameters: Craving / Key Parameters: Relapse: scale 0-10
Method: (v) Scoring of key parameters was based on questionaries completed by the subject. For the audit score, an initial base-line questionnaire preceding treatment and subsequently, a similar weekly questionnaire, following each week of treatment was conducted by the trial clinician and trial subject. The subject's answers were assigned a value and the score for all 10 questions totalled (out of 40). A total of 13+ is indicated as alcohol dependent, 8+ as a hazardous drinker and less than 8 a safe drinker, with 0 indicating abstinence. Levels of Craving, tendency to Relapse and degree of Abstinence were rated by the subject on a scale of 0-10, with 0,0 indicating absence of craving and relapse respectively, and 10 indicating total abstinence from alcohol and volatile inhalant.
Two patients were treated in an open trial with a daily dose of naltrexone, acamprosate and verapamil. Key parameters were evaluated as per Example 6. The results are presented in Table 2, depicting treatment duration, patient characteristics, key parameters and improved parameters and side-effects.

[3] = in vivo; cited from earlier work
[4] = tested on: detoxified alcoholic patients; assay: N-of-1 double-blind placebo-controlled cross-over clinical trial in detoxified alcoholic patients (Example 6, Table 1); assay type: in vivo, human; conditions: 5 mg, in two subjects
Method: The patient characteristics, their randomised active and control treatments and their outcomes, and the key and ancillary parameters on which the progressive comparative weekly safeties and efficacies of the active and control treatments were determined for each of the 6 double-blind trial subjects are all shown in Table 1.
(i) Each trial subject received sequentially 3 different but operationally-related individual treatments, each on an oral once daily basis, labelled, for convenience, A (which may randomly be an active or control treatment), B (wash-out) and C (which may also randomly be a control or […])
(ii) To permit their optimal comparison by the same test subject, treatments A & C were both given for the same and longest length of time available before the trial was terminated. Patient and clinician bias in interpretation was minimised or excluded by giving these treatments on a randomised double-blind basis which ensured that neither knew if the active or control treatment was given first or last. Thus sometimes, labelled treatment A or C was the active or control treatment and vice versa. The actual drug components of treatments A, B and C for each trial subject, and the duration of each treatment are also shown in Table 1 in each case. […]

SMILES: O=C1CC[C@@]2(O)[C@H]3Cc4ccc(O)c5c4[C@@]2(CCN3CC2CC2)[C@H]1O5 [N25, Naltrexone]
- Abstinence [1]: 10 and 8
- Patient's View [1]: Progress+; also recorded: Progress++; also recorded: Progress+++

SMILES: O=C1CC[C@@]2(O)[C@H]3Cc4ccc(O)c5c4[C@@]2(CCN3CC2CC2)[C@H]1O5 [N25 + Pl]
- Relapse ([1]; scale 0-10, 0 = absence, listed as N5 + Pl): 0
- Abstinence ([1]; listed as N5 + Pl): 10
- Patient's View [1]: Progress 0
- Patient's View ([1]; assessment date 03/11/00): Progress +/−
- Patient's View ([1]; assessment date 15/11/00): Progress +
- Patient's View ([1]; listed as N5 + Pl): Progress ++
- Patient's View ([1]; listed as NAll25 + Pl, assessment date 03/11/00): Progress+/−
- Patient's View ([1]; listed as NAll25 + Pl, assessment date 15/11/00): Progress+

SMILES: CC(=O)NCCCS(=O)(=O)O [A666 × 3]
- Key Parameters: Audit Score ([2]; subject 1 (Alc 20+ Units/d), 01/07/00): 37
- Improved (1) Ancillary Parameters: Energy ([2]; subject 1, 01/07/00): 0
- Improved (1) Ancillary Parameters: In-Control ([2]; subject 1, 01/07/00): 0
- Improved (1) Ancillary Parameters: Thinking ([2]; subject 1, 01/07/00): 0
- Patient's View ([2]; subject 1, 01/07/00): 0
- Side-effects ([2]; subject 1, 01/07/00): Nil
- Key Parameters: Abstinence ([2]; subject 1, 01/07/00): 0
- Key Parameters: Craving ([2]; subject 1, 01/07/00): 8
- Key Parameters: Relapse ([2]; subject 1, 01/07/00): 10
- Improved (1) Ancillary Parameters: Energy ([2]; subject 1, 09/07/00): 0
- Improved (1) Ancillary Parameters: Thinking ([2]; subject 1, 09/07/00): 0
- Patient's View ([2]; subject 1, 09/07/00): Progress+
- Side-effects ([2]; subject 1, 09/07/00): Nil
- Key Parameters: Abstinence ([2]; subject 1, 09/07/00): 1
- Key Parameters: Craving ([2]; subject 1, 09/07/00): 7
- Key Parameters: Relapse ([2]; subject 1, 09/07/00): 8
- Key Parameters: Audit Score ([2]; subject 1, 09/07/00): 37

SMILES: CCOC(=O)C1=C(COCCN)NC(C)=C(C(=O)OC)C1c1ccccc1Cl (centres unmarked) [amlodipine]
- time to reach a plateau plasma concentration [3]: 5 to 10 days
- Side-effects of the administered dose [4]: a number of initial transient side-effects
